{"source": "PubChem BioAssay AID1963841", "about": "(Molecular Pharmacology Branch, DTP, NCI, 2024);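 further: spheroids exposed to compounds for seven days before readout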;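 on viability, T/C: 100% = DMSO vehicle control viability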", "test_system": "439559-082-T-J2-PDC spheroid viability", "assay": "Anticancer human tumor 439559-082-T-J2-PDC patient-derived colon adenocarcinoma cell line growth inhibition [POLQ]", "settings": "spheroids with HUVEC and MSC; for IC50: curve of first compound; for viability, T/C: stronger effect = lower value", "summary_of_the_method": "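Patient-derived tumour cells were co-cultured with HUVEC and mesenchymal stem cells as multicellular spheroids at 37 °C. They were treated with POLQ inhibitors (novobiocin, ART-558, RP6685) alone or combined with other agents. Top concentrations were at or near clinical Cmax (otherwise 10 microM; SN-38 at 1 microM), decreasing in half-log steps.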", "key": {"[1]": {"settings": "second compound 0.0316 µM, first compound 0.0316 µM"}, "[2]": {"settings": "second compound 0.0316 µM, first compound 0.1 µM"}, "[3]": {"settings": "second compound 0.0316 µM, first compound 0.316 µM"}, "[4]": {"settings": "second compound 0.0316 µM, first compound 1 µM"}, "[5]": {"settings": "second compound 0.0316 µM, first compound 3.16 µM"}, "[6]": {"settings": "second compound 0.0316 µM, first compound 10 µM"}, "[7]": {"settings": "second compound 0.1 µM, first compound 0.0316 µM"}, "[8]": {"settings": "second compound 0.1 µM, first compound 0.1 µM"}, "[9]": {"settings": "second compound 0.1 µM, first compound 0.316 µM"}, "[10]": {"settings": "second compound 0.1 µM, first compound 1 µM"}, "[11]": {"settings": "second compound 0.1 µM, first compound 3.16 µM"}, "[12]": {"settings": "second compound 0.1 µM, first compound 10 µM"}, "[13]": {"settings": "second compound 0.316 µM, first compound 0.0316 µM"}, "[14]": {"settings": "second compound 0.316 µM, first compound 0.1 µM"}, "[15]": {"settings": "second compound 0.316 µM, first compound 0.316 µM"}, "[16]": {"settings": "second compound 0.316 µM, first compound 1 µM"}, "[17]": {"settings": "second compound 0.316 µM, first compound 3.16 µM"}, "[18]": {"settings": "second compound 0.316 µM, first compound 10 µM"}, "[19]": {"settings": "second compound 1 µM, first compound 0.0316 µM"}, "[20]": {"settings": "second compound 1 µM, first compound 0.1 µM"}, "[21]": {"settings": "second compound 1 µM, first compound 0.316 µM"}, "[22]": {"settings": "second compound 1 µM, first compound 1 µM"}, "[23]": {"settings": "second compound 1 µM, first compound 3.16 µM"}, "[24]": {"settings": "second compound 1 µM, first compound 10 µM"}, "[25]": {"settings": "second compound 3.16 µM, first compound 0.0316 µM"}, "[26]": {"settings": "second compound 3.16 µM, first compound 0.1 µM"}, "[27]": {"settings": "second compound 3.16 µM, first compound 0.316 µM"}, "[28]": {"settings": "second compound 3.16 µM, first compound 1 µM"}, "[29]": {"settings": "second compound 3.16 µM, first compound 3.16 µM"}, "[30]": {"settings": "second compound 3.16 µM, first compound 10 µM"}, "[31]": {"settings": "second compound 10 µM, first compound 0.0316 µM"}, "[32]": {"settings": "second compound 10 µM, first compound 0.1 µM"}, "[33]": {"settings": "second compound 10 µM, first compound 0.316 µM"}, "[34]": {"settings": "second compound 10 µM, first compound 1 µM"}, "[35]": {"settings": "second compound 10 µM, first compound 3.16 µM"}, "[36]": {"settings": "second compound 10 µM, first compound 10 µM"}}}
{"smiles": "C#Cc1c(F)ccc2cc(O)cc(-c3ncc4c(N5CC6CCC(C5)N6)nc(OCC56CCCN5CC(F)C6)nc4c3F)c12", "note": "(centres undefined) + Nc1ccc(C#CCN(C(=O)Cc2ncc(C(F)(F)F)cc2C(F)(F)F)c2ccc(F)cc2)nn1", "values": [{"measurement": "IC50", "setting": "second compound 0.0316 µM", "value": "> 10", "unit": "µM"}, {"measurement": "IC50", "setting": "second compound 0.1 µM", "value": "> 10", "unit": "µM"}, {"measurement": "IC50", "setting": "second compound 0.316 µM", "value": "> 10", "unit": "µM"}, {"measurement": "IC50", "setting": "second compound 1 µM", "value": "> 10", "unit": "µM"}, {"measurement": "IC50", "setting": "second compound 3.16 µM", "value": "> 10", "unit": "µM"}, {"measurement": "IC50", "setting": "second compound 10 µM", "value": "> 10", "unit": "µM"}, {"measurement": "viability, T/C", "setting": "[1]", "value": 94.9, "unit": "%"}, {"measurement": "viability, T/C", "setting": "[2]", "value": 84.2, "unit": "%"}, {"measurement": "viability, T/C", "setting": "[3]", "value": 71.5, "unit": "%"}, {"measurement": "viability, T/C", "setting": "[4]", "value": 73.7, "unit": "%"}, {"measurement": "viability, T/C", "setting": "[5]", "value": 71.1, "unit": "%"}, {"measurement": "viability, T/C", "setting": "[6]", "value": 70.2, "unit": "%"}, {"measurement": "viability, T/C", "setting": "[7]", "value": 103, "unit": "%"}, {"measurement": "viability, T/C", "setting": "[8]", "value": 77.3, "unit": "%"}, {"measurement": "viability, T/C", "setting": "[9]", "value": 68, "unit": "%"}, {"measurement": "viability, T/C", "setting": "[10]", "value": 82, "unit": "%"}, {"measurement": "viability, T/C", "setting": "[11]", "value": 74.5, "unit": "%"}, {"measurement": "viability, T/C", "setting": "[12]", "value": 54.6, "unit": "%"}, {"measurement": "viability, T/C", "setting": "[13]", "value": 81.3, "unit": "%"}, {"measurement": "viability, T/C", "setting": "[14]", "value": 87.2, "unit": "%"}, {"measurement": "viability, T/C", "setting": "[15]", "value": 71.9, "unit": "%"}, {"measurement": "viability, T/C", "setting": "[16]", "value": 69.9, "unit": "%"}, {"measurement": "viability, T/C", "setting": "[17]", "value": 70.6, "unit": "%"}, {"measurement": "viability, T/C", "setting": "[18]", "value": 64.9, "unit": "%"}, {"measurement": "viability, T/C", "setting": "[19]", "value": 105, "unit": "%"}, {"measurement": "viability, T/C", "setting": "[20]", "value": 82.7, "unit": "%"}, {"measurement": "viability, T/C", "setting": "[21]", "value": 62.3, "unit": "%"}, {"measurement": "viability, T/C", "setting": "[22]", "value": 60.9, "unit": "%"}, {"measurement": "viability, T/C", "setting": "[23]", "value": 75.2, "unit": "%"}, {"measurement": "viability, T/C", "setting": "[24]", "value": 65, "unit": "%"}, {"measurement": "viability, T/C", "setting": "[25]", "value": 79.9, "unit": "%"}, {"measurement": "viability, T/C", "setting": "[26]", "value": 84, "unit": "%"}, {"measurement": "viability, T/C", "setting": "[27]", "value": 68.4, "unit": "%"}, {"measurement": "viability, T/C", "setting": "[28]", "value": 59.1, "unit": "%"}, {"measurement": "viability, T/C", "setting": "[29]", "value": 60.4, "unit": "%"}, {"measurement": "viability, T/C", "setting": "[30]", "value": 62.7, "unit": "%"}, {"measurement": "viability, T/C", "setting": "[31]", "value": 92.7, "unit": "%"}, {"measurement": "viability, T/C", "setting": "[32]", "value": 76.9, "unit": "%"}, {"measurement": "viability, T/C", "setting": "[33]", "value": 76.5, "unit": "%"}, {"measurement": "viability, T/C", "setting": "[34]", "value": 72, "unit": "%"}, {"measurement": "viability, T/C", "setting": "[35]", "value": 65.2, "unit": "%"}, {"measurement": "viability, T/C", "setting": "[36]", "value": 66.4, "unit": "%"}]}
{"smiles": "CC1COCCN1c1cc(C2(O)CC3CCC(C2)O3)c2cnn(-c3ccn[nH]3)c2n1", "note": "(centres undefined) + Nc1ccc(C#CCN(C(=O)Cc2ncc(C(F)(F)F)cc2C(F)(F)F)c2ccc(F)cc2)nn1", "values": [{"measurement": "IC50", "setting": "second compound 0.0316 µM", "value": "> 10", "unit": "µM"}, {"measurement": "IC50", "setting": "second compound 0.1 µM", "value": "> 10", "unit": "µM"}, {"measurement": "IC50", "setting": "second compound 0.316 µM", "value": "> 10", "unit": "µM"}, {"measurement": "IC50", "setting": "second compound 1 µM", "value": "> 10", "unit": "µM"}, {"measurement": "IC50", "setting": "second compound 3.16 µM", "value": "> 10", "unit": "µM"}, {"measurement": "IC50", "setting": "second compound 10 µM", "value": "> 10", "unit": "µM"}, {"measurement": "viability, T/C", "setting": "[1]", "value": 97.8, "unit": "%"}, {"measurement": "viability, T/C", "setting": "[2]", "value": 88.4, "unit": "%"}, {"measurement": "viability, T/C", "setting": "[3]", "value": 77, "unit": "%"}, {"measurement": "viability, T/C", "setting": "[4]", "value": 62.4, "unit": "%"}, {"measurement": "viability, T/C", "setting": "[5]", "value": 59.4, "unit": "%"}, {"measurement": "viability, T/C", "setting": "[6]", "value": 51.4, "unit": "%"}, {"measurement": "viability, T/C", "setting": "[7]", "value": 102, "unit": "%"}, {"measurement": "viability, T/C", "setting": "[8]", "value": 85.8, "unit": "%"}, {"measurement": "viability, T/C", "setting": "[9]", "value": 79.4, "unit": "%"}, {"measurement": "viability, T/C", "setting": "[10]", "value": 60.3, "unit": "%"}, {"measurement": "viability, T/C", "setting": "[11]", "value": 56.9, "unit": "%"}, {"measurement": "viability, T/C", "setting": "[12]", "value": 54.4, "unit": "%"}, {"measurement": "viability, T/C", "setting": "[13]", "value": 126, "unit": "%"}, {"measurement": "viability, T/C", "setting": "[14]", "value": 73.7, "unit": "%"}, {"measurement": "viability, T/C", "setting": "[15]", "value": 66.8, "unit": "%"}, {"measurement": "viability, T/C", "setting": "[16]", "value": 60.1, "unit": "%"}, {"measurement": "viability, T/C", "setting": "[17]", "value": 59.2, "unit": "%"}, {"measurement": "viability, T/C", "setting": "[18]", "value": 50.2, "unit": "%"}, {"measurement": "viability, T/C", "setting": "[19]", "value": 97.1, "unit": "%"}, {"measurement": "viability, T/C", "setting": "[20]", "value": 100, "unit": "%"}, {"measurement": "viability, T/C", "setting": "[21]", "value": 78.2, "unit": "%"}, {"measurement": "viability, T/C", "setting": "[22]", "value": 66.7, "unit": "%"}, {"measurement": "viability, T/C", "setting": "[23]", "value": 60.6, "unit": "%"}, {"measurement": "viability, T/C", "setting": "[24]", "value": 55, "unit": "%"}, {"measurement": "viability, T/C", "setting": "[25]", "value": 82.5, "unit": "%"}, {"measurement": "viability, T/C", "setting": "[26]", "value": 80.5, "unit": "%"}, {"measurement": "viability, T/C", "setting": "[27]", "value": 82.3, "unit": "%"}, {"measurement": "viability, T/C", "setting": "[28]", "value": 60.6, "unit": "%"}, {"measurement": "viability, T/C", "setting": "[29]", "value": 59.1, "unit": "%"}, {"measurement": "viability, T/C", "setting": "[30]", "value": 58, "unit": "%"}, {"measurement": "viability, T/C", "setting": "[31]", "value": 91.7, "unit": "%"}, {"measurement": "viability, T/C", "setting": "[32]", "value": 80.7, "unit": "%"}, {"measurement": "viability, T/C", "setting": "[33]", "value": 66.9, "unit": "%"}, {"measurement": "viability, T/C", "setting": "[34]", "value": 53.1, "unit": "%"}, {"measurement": "viability, T/C", "setting": "[35]", "value": 55.3, "unit": "%"}, {"measurement": "viability, T/C", "setting": "[36]", "value": 48.6, "unit": "%"}]}
